From patent US20250231157A1, “METHOD FOR DETERMINING THE PARTITION OF NAPHTHENIC ACIDS FROM A PRODUCTION WATER MIMICKING SYSTEM AND MIMICKING SYSTEM” (PETRÓLEO BRASILEIRO S.A. – PETROBRAS, priority 2023, published 2025)

Columns and labels:
[1] = Partition equilibrium in the presence of surfactants (TBA, CTA, TMA); type: physicochemical; conditions: for Increase in migration to the aqueous phase with CTA: surfactant CTA, 1000 mg·L^−1; for Effect of TBA on migration to the aqueous phase: different concentrations; for Increase in affinity for the hydrophilic phase with TMA: from 100 mg·L^−1
Description: The presence of chemical compounds usually added in the chain of unit operations of oil extraction and production, such as demulsifiers and surfactants, can affect the partition equilibrium of species in this water/oil system. In order to understand the extent of this effect, as well as discern the relevance of the chemical structure on this effect, the following items were chosen: • Dissolvan 961 (Clariant), composed of oil hydrocarbons (CAS 918-811-1) and ethanol (CAS 64-17-5); • Dissolvan 974 (Clariant), composed of EO-PO block polymer poly adducts and Bisphenol-A-diglycidyl ether (CAS 68123-18-2) and ethanol (CAS 64-17-5); • Tetrabutylammonium chloride (CAS 1112-67-0), 97% purity; • Cetyltrimethylammonium chloride (CAS 112-02-7), 25% in water; and • Trimethylammonium chloride (CAS 593-81-7), 98% purity.
For this study, the experiments (in triplicate) used between 100.0 and 1000.0 mg·L^−1 of each compound, comparing the results with control tests (absence of the component), all with constant salinity at 3.5% (m·v^−1). Finally, neutralization titration with a standardized NaOH titrant solution was used to determine the effect on the partition equilibrium for four acidic species (the same as in the other examples, except for dicyclohexylacetic acid).
Considering the study with surfactants, the (individual) addition of three species to the control system was evaluated (tetrabutylammonium chloride (TBA), tetramethylammonium chloride (TMA) and cetyltrimethylammonium chloride (CTA)). For this purpose, the surfactants have distinct chemical structures, namely the size of the side chain, and their eventual effect on the partition equilibrium of the acidic species was evaluated.

[2] = Partition equilibrium in the presence of demulsifiers (Dissolvan 961, Dissolvan 974)
[3] = Absence of surfactant, salinity 3.5%
[4] = CTA100 (cetyltrimethylammonium chloride 100 mg · L^−1)
[5] = TBA100 (tetrabutylammonium chloride 100 mg · L^−1)
[6] = TMA100 (trimethylammonium chloride 100 mg · L^−1)
[7] = Absence of ions (no demulsifier), salinity 3.5%

Row | Migration [1, 3] | Migration [1, 4] | Migration ([1]; CTA1000 (1000 mg · L^−1)) | Migration [1, 5] | Migration ([1]; TBA1000 (1000 mg · L^−1)) | Migration [1, 6] | Migration ([1]; TMA1000 (1000 mg · L^−1)) | Increase in migration to the aqueous phase with CTA [1] | Migration [2, 7] | Migration ([2]; D961 50 mg · L^−1) | Migration ([2]; D961 100 mg · L^−1) | Migration ([2]; D961 1000 mg · L^−1) | Migration ([2]; D974 50 mg · L^−1) | Migration ([2]; D974 100 mg · L^−1) | Migration ([2]; D974 1000 mg · L^−1) | SMILES | Effect of TBA on migration to the aqueous phase ([1]; surfactant TBA) | Increase in affinity for the hydrophilic phase with TMA ([1]; surfactant TMA) | further results
1 | 4.9 %, mol | 2.1 %, mol | 38.9 %, mol | 18.5 %, mol | 18.4 %, mol | 0.0 %, mol | 0.0 %, mol | above 700% | 4.9 %, mol | 5.42 %, mol | 5.16 %, mol | 10.2 %, mol | 4.78 %, mol | 5.26 %, mol | 12.80 %, mol | O=C(O)CCCCC1CCCCC1 [Cyclohexanepentanoic Acid, cyclohexanepentanoic acid] | – | – | Increase in the tendency to migrate to the aqueous phase with TBA ([1]; surfactant TBA, noticeable from 100 mg·L^−1): 370%; Effect of TMA on partition equilibrium ([1]; surfactant TMA): migration tending to zero; Increase in migration to the aqueous phase with demulsifier ([2]; addition of 1000 mg·L^−1 demulsifier): ~100%
2 | 77.0 %, mol | 76.0 %, mol | 85.0 %, mol | 76.2 %, mol | 73.3 %, mol | 83.2 %, mol | 83.5 %, mol | ~10% | 77.0 %, mol | 67.0 %, mol | 70.0 %, mol | 75.7 %, mol | 66.9 %, mol | 74.3 %, mol | 74.8 %, mol | CCCCC(=O)O [Pentanoic Acid, pentanoic acid] | no significant effect | approximately 10% | Effect of demulsifiers on partition equilibrium ([2]; up to 1000 mg·L^−1, 95% significance): no observable effect

Row | SMILES | Migration [1, 3] | Migration [1, 4] | Migration ([1]; CTA1000 (1000 mg · L^−1)) | Migration [1, 5] | Migration ([1]; TBA1000 (1000 mg · L^−1)) | Migration [1, 6] | Migration ([1]; TMA1000 (1000 mg · L^−1)) | Increase in migration to the aqueous phase with CTA [1] | Migration [2, 7] | Migration ([2]; D961 50 mg · L^−1) | Migration ([2]; D961 100 mg · L^−1) | Migration ([2]; D961 1000 mg · L^−1) | Migration ([2]; D974 50 mg · L^−1) | Migration ([2]; D974 100 mg · L^−1) | Migration ([2]; D974 1000 mg · L^−1) | Effect of TBA on migration to the aqueous phase ([1]; surfactant TBA) | Increase in affinity for the hydrophilic phase with TMA ([1]; surfactant TMA) | further results
3 | O=C(O)c1ccccc1 [Benzoic Acid, benzoic acid] | 82.0 %, mol | 57.1 %, mol | 66.3 %, mol | 55.5 %, mol | 54.8 %, mol | 63.4 %, mol | 63.7 %, mol | ~10% | 82.0 %, mol | 62.3 %, mol | 70.3 %, mol | 68.4 %, mol | 63.1 %, mol | 57.3 %, mol | 59.7 %, mol | no significant effect | approximately 10% | –
